Numbers after ± are expanded uncertainties.
Test: wn = mass fraction of the nth substance listed
Conditions: Liquid; for viscosity: Falling or rolling sphere viscometry; for mass density: Vibrating tube method
[1] = 353.15 K, 120000 kPa, w1 = 0.3005

## NCCO [2-aminoethan-1-ol] + O
353.15 K, 120000 kPa, w1 = 0.2
  viscosity: 0.644 ± 0.02 mPa·s
  mass density: 1021.6 ± 0.7 kg/m3
[1]
  viscosity: 0.861 ± 0.027 mPa·s
  mass density: 1023.3 ± 0.7 kg/m3
353.15 K, 120000 kPa, w1 = 0.4001
  viscosity: 1.128 ± 0.035 mPa·s
353.15 K, 120000 kPa, w1 = 0.1001
  mass density: 1021.2 ± 0.7 kg/m3
353.15 K, 120000 kPa, w1 = 0.4
  mass density: 1025.2 ± 0.7 kg/m3
373.15 K, 100 kPa, w1 = 0.1001
  mass density: 960.8 ± 0.7 kg/m3
373.15 K, 100 kPa, w1 = 0.2
  mass density: 962.5 ± 0.7 kg/m3
373.15 K, 100 kPa, w1 = 0.3005
  mass density: 964.5 ± 0.7 kg/m3
373.15 K, 100 kPa, w1 = 0.4
  mass density: 966.6 ± 0.7 kg/m3
373.15 K, 500 kPa, w1 = 0.1001
  mass density: 961 ± 0.7 kg/m3
373.15 K, 500 kPa, w1 = 0.2
  mass density: 962.7 ± 0.7 kg/m3
373.15 K, 500 kPa, w1 = 0.3005
  mass density: 964.8 ± 0.7 kg/m3
373.15 K, 500 kPa, w1 = 0.4
  mass density: 966.9 ± 0.7 kg/m3
373.15 K, 1000 kPa, w1 = 0.1001
  mass density: 961.3 ± 0.7 kg/m3
373.15 K, 1000 kPa, w1 = 0.2
  mass density: 962.9 ± 0.7 kg/m3
373.15 K, 1000 kPa, w1 = 0.3005
  mass density: 965 ± 0.7 kg/m3
373.15 K, 1000 kPa, w1 = 0.4
  mass density: 967.1 ± 0.7 kg/m3
373.15 K, 2000 kPa, w1 = 0.1001
  mass density: 961.8 ± 0.7 kg/m3
373.15 K, 2000 kPa, w1 = 0.2
  mass density: 963.4 ± 0.7 kg/m3
373.15 K, 2000 kPa, w1 = 0.3005
  mass density: 965.5 ± 0.7 kg/m3
373.15 K, 2000 kPa, w1 = 0.4
  mass density: 967.6 ± 0.7 kg/m3
373.15 K, 5000 kPa, w1 = 0.1001
  mass density: 963.1 ± 0.7 kg/m3
373.15 K, 5000 kPa, w1 = 0.2
  mass density: 964.7 ± 0.7 kg/m3
373.15 K, 5000 kPa, w1 = 0.3005
  mass density: 966.8 ± 0.7 kg/m3
373.15 K, 5000 kPa, w1 = 0.4
  mass density: 968.9 ± 0.7 kg/m3
373.15 K, 10000 kPa, w1 = 0.1001
  mass density: 965.5 ± 0.7 kg/m3
373.15 K, 10000 kPa, w1 = 0.2
  mass density: 966.9 ± 0.7 kg/m3
373.15 K, 10000 kPa, w1 = 0.3005
  mass density: 969 ± 0.7 kg/m3
373.15 K, 10000 kPa, w1 = 0.4
  mass density: 971.1 ± 0.7 kg/m3
373.15 K, 15000 kPa, w1 = 0.1001
  mass density: 967.7 ± 0.7 kg/m3
373.15 K, 15000 kPa, w1 = 0.2
  mass density: 969.1 ± 0.7 kg/m3
373.15 K, 15000 kPa, w1 = 0.3005
  mass density: 971.2 ± 0.7 kg/m3
373.15 K, 15000 kPa, w1 = 0.4
  mass density: 973.3 ± 0.7 kg/m3
373.15 K, 20000 kPa, w1 = 0.1001
  mass density: 969.9 ± 0.7 kg/m3
373.15 K, 20000 kPa, w1 = 0.2
  mass density: 971.3 ± 0.7 kg/m3
373.15 K, 20000 kPa, w1 = 0.3005
  mass density: 973.4 ± 0.7 kg/m3
373.15 K, 20000 kPa, w1 = 0.4
  mass density: 975.4 ± 0.7 kg/m3
373.15 K, 30000 kPa, w1 = 0.1001
  mass density: 974.4 ± 0.7 kg/m3
373.15 K, 30000 kPa, w1 = 0.2
  mass density: 975.6 ± 0.7 kg/m3
373.15 K, 30000 kPa, w1 = 0.3005
  mass density: 977.6 ± 0.7 kg/m3
373.15 K, 30000 kPa, w1 = 0.4
  mass density: 979.7 ± 0.7 kg/m3
373.15 K, 40000 kPa, w1 = 0.1001
  mass density: 978.7 ± 0.7 kg/m3
373.15 K, 40000 kPa, w1 = 0.2
  mass density: 979.8 ± 0.7 kg/m3
373.15 K, 40000 kPa, w1 = 0.3005
  mass density: 981.7 ± 0.7 kg/m3
373.15 K, 40000 kPa, w1 = 0.4
  mass density: 983.8 ± 0.7 kg/m3
373.15 K, 50000 kPa, w1 = 0.1001
  mass density: 982.8 ± 0.7 kg/m3
373.15 K, 50000 kPa, w1 = 0.2
  mass density: 983.7 ± 0.7 kg/m3
373.15 K, 50000 kPa, w1 = 0.3005
  mass density: 985.6 ± 0.7 kg/m3
373.15 K, 50000 kPa, w1 = 0.4
  mass density: 987.6 ± 0.7 kg/m3
373.15 K, 60000 kPa, w1 = 0.1001
  mass density: 986.8 ± 0.7 kg/m3
373.15 K, 60000 kPa, w1 = 0.2
  mass density: 987.7 ± 0.7 kg/m3
373.15 K, 60000 kPa, w1 = 0.3005
  mass density: 989.5 ± 0.7 kg/m3
373.15 K, 60000 kPa, w1 = 0.4
  mass density: 991.6 ± 0.7 kg/m3
373.15 K, 70000 kPa, w1 = 0.1001
  mass density: 990.8 ± 0.7 kg/m3
373.15 K, 70000 kPa, w1 = 0.2
  mass density: 991.5 ± 0.7 kg/m3
373.15 K, 70000 kPa, w1 = 0.3005
  mass density: 993.3 ± 0.7 kg/m3
373.15 K, 70000 kPa, w1 = 0.4
  mass density: 995.2 ± 0.7 kg/m3
373.15 K, 80000 kPa, w1 = 0.1001
  mass density: 994.8 ± 0.7 kg/m3
373.15 K, 80000 kPa, w1 = 0.2
  mass density: 995.4 ± 0.7 kg/m3
373.15 K, 80000 kPa, w1 = 0.3005
  mass density: 997.1 ± 0.7 kg/m3
373.15 K, 80000 kPa, w1 = 0.4
  mass density: 999.1 ± 0.7 kg/m3
373.15 K, 90000 kPa, w1 = 0.1001
  mass density: 998.5 ± 0.7 kg/m3
373.15 K, 90000 kPa, w1 = 0.2
  mass density: 999 ± 0.7 kg/m3
373.15 K, 90000 kPa, w1 = 0.3005
  mass density: 1000.8 ± 0.7 kg/m3
373.15 K, 90000 kPa, w1 = 0.4
  mass density: 1002.5 ± 0.7 kg/m3
373.15 K, 100000 kPa, w1 = 0.1001
  mass density: 1002.2 ± 0.7 kg/m3
373.15 K, 100000 kPa, w1 = 0.2
  mass density: 1002.5 ± 0.7 kg/m3
373.15 K, 100000 kPa, w1 = 0.3005
  mass density: 1004.2 ± 0.7 kg/m3
373.15 K, 100000 kPa, w1 = 0.4
  mass density: 1006 ± 0.7 kg/m3
373.15 K, 110000 kPa, w1 = 0.1001
  mass density: 1005.9 ± 0.7 kg/m3
373.15 K, 110000 kPa, w1 = 0.2
  mass density: 1006.1 ± 0.7 kg/m3
373.15 K, 110000 kPa, w1 = 0.3005
  mass density: 1007.7 ± 0.7 kg/m3
373.15 K, 110000 kPa, w1 = 0.4
  mass density: 1009.5 ± 0.7 kg/m3

Source: the NIST ThermoML archive (doi:10.1016/j.jct.2016.03.021)
